Test results reported in patent US8410095B2, “Thiazolopyrimidinone derivatives as PI3 kinase inhibitors” (GlaxoSmithKline LLC, priority 2009, dated 2013).

target: T1, PI3Kβ (Homo sapiens, UniProt P42338); experiment: HTRF in vitro profiling assay for PI3K inhibition, beta isoform; format: biochemical; conditions: in at least one experimental run; read-out: IC50 against PI3Kβ
T1 construct: made in house
Excerpt: (§1) HTRF In vitro Profiling Assays for PI3K Inhibition
(§2) The PI3-Kinase profiling assays were developed to measure the compound-dependent inhibition of the alpha, beta, delta, and gamma isoforms of PI3Kin an in vitro catalytic assay. This assay was developed and optimized from a kit produced by Upstate (Millipore catalog #33-017). Briefly, this procedure utilizes a pre-formed HTRF (Homogeneous Time-Resolved Fluorescence energy transfer) complex between four binding partners: 1) biotinylated PIP3, 2) GST tagged pleckstrin homology (PH) domain, 3) Europium labeled anti-GST monoclonal antibody, and 4) Streptavidin-Allophycocyanin (APC). The native PIP3 produced by PI 3-Kinase activity displaces biotin-PIP3 from the PH domain, resulting in the dissociation of the HTRF complex and a decrease in the fluorescence signal. The format of this assay is the same for all 4 isoforms of PI3K; the differences lie in the concentration of enzyme used to achieve the most robust signal. The alpha and delta assays are run at […] enzyme and the gamma assay is run at 1 nM enzyme. In addition, the alpha, beta and delta assays are run with 150 mM NaCl while the gamma assay is run in the absence of NaCl. The ATP concentration is 100 uM in the alpha, beta, and delta assays and 15 uM ATP in the gamma assay. All reactions are run at 10 uM PIP2
Compounds are serially diluted (3-fold in 100% DMSO) across a 384-well polypropylene mother plate from column I to column 12 and column 13 to column 24, to yield 11 concentrations for each test compound. Columns 6 and 18 contain only DMSO. Once titrations are made, 0.05 μL is transferred to a 384-well low-volume assay plate (Greiner 784076). This assay plate contains three pharmacological controls (known PI3K inhibitors) and 3 assay controls: (1) Enzyme without inhibitor; (2) Buffer minus enzyme, and (3) Buffer minus enzyme plus native PIP3. DMSO is stamped into all wells of columns 6 and 18. PIP3 is added at 40 μM in 1× Reaction buffer (1 μL of 200 μM PIP3) to alternating rows of column 18 (wells 18 B, D, F, H, J, L, N, P). […]

T1 sequence (P42338 whole entry, canonical isoform): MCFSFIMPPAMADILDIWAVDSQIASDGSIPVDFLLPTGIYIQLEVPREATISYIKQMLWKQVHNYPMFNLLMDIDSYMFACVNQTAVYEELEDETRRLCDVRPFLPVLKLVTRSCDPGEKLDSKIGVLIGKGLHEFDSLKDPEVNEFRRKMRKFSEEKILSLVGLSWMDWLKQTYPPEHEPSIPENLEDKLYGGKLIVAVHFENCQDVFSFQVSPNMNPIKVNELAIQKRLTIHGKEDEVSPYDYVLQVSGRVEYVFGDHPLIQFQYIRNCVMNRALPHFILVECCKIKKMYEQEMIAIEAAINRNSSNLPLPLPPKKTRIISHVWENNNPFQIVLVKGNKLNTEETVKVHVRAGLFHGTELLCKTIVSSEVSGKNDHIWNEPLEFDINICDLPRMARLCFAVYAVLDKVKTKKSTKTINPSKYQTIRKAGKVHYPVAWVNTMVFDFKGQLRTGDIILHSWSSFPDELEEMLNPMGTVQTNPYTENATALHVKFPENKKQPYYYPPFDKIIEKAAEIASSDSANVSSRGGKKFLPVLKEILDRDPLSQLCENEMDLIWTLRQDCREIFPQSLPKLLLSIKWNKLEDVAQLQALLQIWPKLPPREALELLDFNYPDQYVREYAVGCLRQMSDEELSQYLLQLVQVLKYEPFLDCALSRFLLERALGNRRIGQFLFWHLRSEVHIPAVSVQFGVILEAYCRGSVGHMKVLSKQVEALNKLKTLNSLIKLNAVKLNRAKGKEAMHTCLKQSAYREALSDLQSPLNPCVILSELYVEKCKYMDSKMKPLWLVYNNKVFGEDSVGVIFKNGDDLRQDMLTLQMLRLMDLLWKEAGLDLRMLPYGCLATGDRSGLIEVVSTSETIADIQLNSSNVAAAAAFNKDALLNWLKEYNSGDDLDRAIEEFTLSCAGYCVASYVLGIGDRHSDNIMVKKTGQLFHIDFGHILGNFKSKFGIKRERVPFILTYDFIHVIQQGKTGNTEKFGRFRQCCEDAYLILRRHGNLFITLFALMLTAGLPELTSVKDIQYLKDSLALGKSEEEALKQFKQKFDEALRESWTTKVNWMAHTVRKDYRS
T1 sequence (P27986 whole entry partner, canonical isoform): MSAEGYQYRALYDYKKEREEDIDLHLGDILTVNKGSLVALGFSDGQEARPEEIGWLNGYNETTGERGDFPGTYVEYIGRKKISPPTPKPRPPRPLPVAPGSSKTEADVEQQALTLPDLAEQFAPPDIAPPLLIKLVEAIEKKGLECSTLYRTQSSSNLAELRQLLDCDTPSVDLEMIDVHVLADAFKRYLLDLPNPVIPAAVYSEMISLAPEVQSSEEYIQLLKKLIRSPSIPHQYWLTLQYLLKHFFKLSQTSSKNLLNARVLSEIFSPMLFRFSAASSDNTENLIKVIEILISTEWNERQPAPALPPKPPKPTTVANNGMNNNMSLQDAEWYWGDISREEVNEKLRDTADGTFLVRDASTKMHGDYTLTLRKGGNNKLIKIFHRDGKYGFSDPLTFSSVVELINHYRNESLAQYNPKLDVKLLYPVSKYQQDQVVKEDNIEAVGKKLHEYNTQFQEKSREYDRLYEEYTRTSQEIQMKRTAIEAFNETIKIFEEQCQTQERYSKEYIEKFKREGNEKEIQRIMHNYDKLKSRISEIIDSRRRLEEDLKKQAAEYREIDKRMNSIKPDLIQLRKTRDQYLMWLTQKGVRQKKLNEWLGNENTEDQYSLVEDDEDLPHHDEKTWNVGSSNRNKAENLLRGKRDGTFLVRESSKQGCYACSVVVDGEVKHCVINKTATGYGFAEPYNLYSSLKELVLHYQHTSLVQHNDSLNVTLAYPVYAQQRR

Question: How did the IC50 turn out when `Cc1c(Cn2c(C)nc(=O)c3sc(N4CCOCC4)nc32)cccc1C(F)(F)F` [Example 59, 5-methyl-4-{[2-methyl-3-(trifluoromethyl)phenyl]methyl}-2-(4-morpholinyl)[1,3]thiazolo[4,5-d]pyrimidin-7(4H)-one] was run?
Answer: The IC50 was 0.5 nM.

Question: For `O=c1ncn(Cc2ccccc2C(F)(F)F)c2nc(N3CCOCC3)sc12` [Example 1, 2-(4-morpholinyl)-4-{[2(trifluoromethyl)phenyl]methyl}[1,3]thiazolo[4,5-d]pyrimidin-7(4H)-one], which IC50 is on record?
Answer: The IC50 was 320 nM.

Question: `Cc1c(Cl)cccc1Cn1cnc(=O)c2sc(N3CCOCC3)nc21` [Example 3, 4-[(3-chloro-2-methylphenyl)methyl]-2-(4-morpholinyl)[1,3]thiazolo[4,5-d]pyrimidin-7(4H)-one] was tested. Which IC50 did it give?
Answer: The IC50 was 400 nM.

target: T2, PI3Kδ (Homo sapiens, UniProt O00329); experiment: HTRF in vitro profiling assay for PI3K inhibition, delta isoform; format: biochemical; conditions: in at least one experimental run; read-out: IC50 against PI3Kδ
T2 construct: made in house
Excerpt: as §1, §2
Compounds are serially diluted (3-fold in 100% DMSO) across a 384-well polypropylene mother plate from column I to column 12 and column 13 to column 24, to yield 11 concentrations for each test compound. Columns 6 and 18 contain only DMSO. Once titrations are made, 0.05 μL is transferred to a 384-well low-volume assay plate (Greiner 784076). This assay plate contains three pharmacological controls (known PI3K inhibitors) and 3 assay controls: (1) Enzyme without inhibitor; (2) Buffer minus enzyme, and (3) Buffer minus enzyme plus native PIP3. DMSO is stamped into all wells of columns 6 and 18. PIP3 is added at 40 μM in 1× Reaction buffer (1 μL of 200 μM PIP3) to alternating rows of column 18 (wells 18 B, D, F, H, J, L, N, P). The no-enzyme control reactions are run in wells 18 A, C, E, G, I, K, M, O (0.1 μL of 100% DMSO).
The PI3-Kinase profiling assay was optimized using the HTRF kit provided by Upstate (Millipore). The assay kit contains seven reagents: 1) 4× Reaction Buffer; 2) native PIP2 (substrate); 3) Stop A (EDTA); 4) Stop B (Biotin-PIP3); 5) Detection Mix A (Streptavidin-APC); 6) Detection Mix B (Eu-labeled Anti-GST plus GST-tagged PH-domain); 7) Detection Mix C (KF). In addition, the following items were obtained or purchased: PI3Kinase (prepared by GSK BR&AD), dithiothreitol (Sigma, D-5545), Adenosine-5′-triphosphate (ATP, Teknova cat. #A0220), native PIP3 (1,2-dioctanoyl-sn-glycero-3-[phosphoinositil-3,4,5-triphosphate]tetraammonium salt (Avanti polar lipids, 850186P), DMSO (Sigma, 472301).
PI3Kinase Reaction Buffer is prepared by diluting the stock 1:4 with de-ionized water. Freshly prepared DTT is added at a final concentration of 5 mM on the day of use. Enzyme addition and compound pre-incubation are initiated by the addition of 2.5 μL of PI3K (at twice its final concentration) in 1× reaction buffer to all wells using a Multidrop Combi. Plates are incubated at room temperature for 15 minutes. Reactions are initiated by addition of 2.5 μL of 2× substrate solution (PIP2 and ATP in 1× reaction buffer) using a Multidrop Combi. Plates are incubated at room temperature for one hour. Reactions are quenched by the addition of 2.5 μL of stop solution (Stop A and Stop B pre-mixed at a ratio of 5:1, respectively) to all wells using the Multidrop Combi. […]

T2 sequence (O00329 whole entry, canonical isoform): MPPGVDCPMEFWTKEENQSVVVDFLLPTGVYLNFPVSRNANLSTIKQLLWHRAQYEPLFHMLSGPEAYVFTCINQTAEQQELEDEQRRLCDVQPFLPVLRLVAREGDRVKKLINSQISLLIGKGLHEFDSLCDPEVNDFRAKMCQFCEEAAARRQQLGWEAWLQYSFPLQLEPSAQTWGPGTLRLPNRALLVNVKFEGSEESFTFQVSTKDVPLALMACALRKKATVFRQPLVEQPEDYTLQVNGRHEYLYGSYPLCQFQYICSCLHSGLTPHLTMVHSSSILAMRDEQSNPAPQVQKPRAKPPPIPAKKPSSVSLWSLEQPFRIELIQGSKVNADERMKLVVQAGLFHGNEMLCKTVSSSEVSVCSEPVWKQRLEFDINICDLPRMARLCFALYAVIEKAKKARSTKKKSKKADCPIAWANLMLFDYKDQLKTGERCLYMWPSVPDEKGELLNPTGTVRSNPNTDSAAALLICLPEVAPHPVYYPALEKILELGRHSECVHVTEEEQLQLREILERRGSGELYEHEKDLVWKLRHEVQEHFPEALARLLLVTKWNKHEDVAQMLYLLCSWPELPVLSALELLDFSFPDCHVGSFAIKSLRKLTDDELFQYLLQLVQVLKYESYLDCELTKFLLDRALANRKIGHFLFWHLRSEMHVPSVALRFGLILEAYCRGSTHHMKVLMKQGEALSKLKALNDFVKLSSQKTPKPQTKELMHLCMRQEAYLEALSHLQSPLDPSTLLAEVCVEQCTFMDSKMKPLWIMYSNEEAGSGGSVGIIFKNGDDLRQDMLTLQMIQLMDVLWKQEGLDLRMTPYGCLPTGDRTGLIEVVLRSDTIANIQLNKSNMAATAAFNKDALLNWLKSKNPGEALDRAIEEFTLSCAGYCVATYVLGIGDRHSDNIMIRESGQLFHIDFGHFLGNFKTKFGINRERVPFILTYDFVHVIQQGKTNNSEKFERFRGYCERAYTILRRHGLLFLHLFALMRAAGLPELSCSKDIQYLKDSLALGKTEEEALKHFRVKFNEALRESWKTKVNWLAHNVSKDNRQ
T2 sequence (P27986 2-724 partner limits assumed): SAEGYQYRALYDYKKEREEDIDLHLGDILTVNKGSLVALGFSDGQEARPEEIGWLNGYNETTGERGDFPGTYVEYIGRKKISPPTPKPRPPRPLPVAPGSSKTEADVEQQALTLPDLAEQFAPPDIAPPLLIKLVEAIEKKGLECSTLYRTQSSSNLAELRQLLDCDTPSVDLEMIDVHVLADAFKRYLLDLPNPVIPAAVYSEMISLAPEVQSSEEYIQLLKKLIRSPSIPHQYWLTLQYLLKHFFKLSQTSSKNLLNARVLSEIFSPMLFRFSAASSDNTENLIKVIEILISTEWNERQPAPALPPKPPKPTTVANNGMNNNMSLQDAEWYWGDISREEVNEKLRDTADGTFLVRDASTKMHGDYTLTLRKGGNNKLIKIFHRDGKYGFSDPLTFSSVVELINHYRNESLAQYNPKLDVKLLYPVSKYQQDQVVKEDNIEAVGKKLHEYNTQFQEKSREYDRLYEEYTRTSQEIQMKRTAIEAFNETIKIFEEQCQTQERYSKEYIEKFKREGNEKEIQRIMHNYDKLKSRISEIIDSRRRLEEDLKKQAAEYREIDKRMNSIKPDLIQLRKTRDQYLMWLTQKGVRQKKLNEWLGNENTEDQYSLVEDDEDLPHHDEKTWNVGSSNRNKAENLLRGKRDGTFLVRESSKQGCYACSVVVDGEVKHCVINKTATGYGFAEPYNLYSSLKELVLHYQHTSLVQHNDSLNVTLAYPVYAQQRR

Question: With `N#Cc1cccc(Cn2cnc(=O)c3sc(N4CCOCC4)nc32)c1` [Example 20, 3-{[2-(4-morpholinyl)-7-oxo[1,3]thiazolo[4,5-d]pyrimidin-4(7H)-yl]methyl}benzonitrile] as the molecule, how does the IC50 read?
Answer: Its IC50 is 8 nM.

same assay, conditions: in at least one experimental run; read-out: pIC50 against PI3Kδ (converted)

Question: How did the IC50 turn out when `CCc1nc(=O)c2sc(N3CCOCC3)nc2n1Cc1cccc(Cl)c1C` [Example 75, 4-[(3-chloro-2-methylphenyl)methyl]-5-ethyl-2-(4-morpholinyl)[1,3]thiazolo[4,5-d]pyrimidin-7(4H)-one] was run?
Answer: The IC50 was 0.158 nM.

Question: `Cc1c(Cl)cccc1Cn1c(CO)nc(=O)c2sc(N3CCOCC3)nc21` [Example 84, 4-[(3-chloro-2-methylphenyl)methyl]-5-(hydroxymethyl)-2-(4-morpholinyl)[1,3]thiazolo[4,5-d]pyrimidin-7(4H)-one] was tested. Which IC50 did it give?
Answer: The IC50 was 0.126 nM.

Question: How did the IC50 turn out when `Cc1c(Cl)cccc1Cn1c(C2CCCO2)nc(=O)c2sc(N3CCOCC3)nc21` (stereo not drawn) [Example 83, 4-[(3-chloro-2-methylphenyl)methyl]-2-(4-morpholinyl)-5-(tetrahydro-2-furanyl)[1,3]thiazolo[4,5-d]pyrimidin-7(4H)-one] was run?
Answer: Its IC50 is 1.26 nM.

Question: How did the IC50 turn out when `Cc1c(Cn2c(-c3ccccc3)nc(=O)c3sc(N4CCOCC4)nc32)cccc1C(F)(F)F` [Example 79, 4-{[2-methyl-3-(trifluoromethyl)phenyl]methyl}-2-(4-morpholinyl)-5-phenyl[1,3]thiazolo[4,5-d]pyrimidin-7(4H)-one] was run?
Answer: Its IC50 is 50.1 nM.

Question: For `Cc1c(Cl)cccc1Cn1c(CN)nc(=O)c2sc(N3CCOCC3)nc21` [Example 111, 5-(aminomethyl)-4-[(3-chloro-2-methylphenyl)methyl]-2-(4-morpholinyl)[1.3]thiazolo[4,5-d]pyrimidin-7(4H)-one], which IC50 is on record?
Answer: The IC50 was 2.51 nM.
